Measured values reported in US3932650A, “Trans-octahydropyridoindolobenzazepines as central nervous system depressants” (E. I. Du Pont de Nemours & Company, priority 1973, dated 1976).
Where two headings read alike, the source gives them in different places.

Legend:
[1] = test system: conditioned avoidance response; assay: Conditioned Avoidance Response (C.A.R.), mouse; type: in vivo; conditions: mouse, po; block of C.A.R. in 50% of animals; 1, 2, and 4 hours; read-out: C.A.R. ED50
Method: (§1) Mouse and Rat Conditioned Avoidance Response (C.A.R.):
(§2) Mice and rats are trained to jump out of a pit onto a ledge to avoid shock when presented with a light and sound conditioned stimulus. The animals are tested 1, 2, and 4 hours after administration of the test compound. Three to four dose levels and groups of 4-8 animals/dose are used. The ED50 is the dose producing a block of the C.A.R. in 50% of the animals. Blocking of the C.A.R. at non-toxic doses appears to correlate with major tranquilizer activity in man.

TBZ-induced ptosis [2] = assay: Tetrabenazine Antagonism (T.B.Z.A.), rat; type: in vivo; conditions: 1 h; rat, po; TBZ 40 mg/kg s.c. one hour after compound; read-out: T.B.Z.A. ED50
Method: (§3) Tetrabenazine Antagonism (T.B.Z.A.)
(§4) The tetrabenazine (TBZ) antagonism test is used to test for potential antidepressant-like activity in rodents. One hour after oral administration of a test compound, a 40 mg/kg dose of TBZ is given subcutaneously. Thirty minutes after TBZ administration, the mice are placed in the center of a circle; the diameter of the circle is twice the body length of the mouse or rat. After 30 seconds, a reading is made of the degree of ptosis and whether the animal has moved out of the circle. Animals that have received only TBZ will show marked ptosis and immobility. Tricyclic antidepressants of the imipramine type will antagonize the ptosis but not the immobility. Antidepressants of the amphetamine or monoamine oxidase inhibitory type will antagonize both the ptosis and immobility induced by TBZ. The ED50 is the dose producing antagonism of TBZ-induced ptosis, but not of TBZ-induced immobility, in 50% of the animals.

catalepsy [3] = assay: Catalepsy, rat; type: in vivo; conditions: rat, po; read-out: Catalepsy MED
Source text: (§5) The ability of an animal to remain in an abnormal position is used as another indication of central nervous system depressant activity. A test animal is removed from its observation cage and positioned so that its hind legs are on the table top and its front legs rest on the side of the observation cage. If an animal maintains this position for at least 10 seconds, it is considered to be showing cataleptic behavior.

locomotor activity [4] = assay: Decreased Locomotor Activity (L.M.A.), mouse; type: in vivo; conditions: mouse, po; minimal effective dose; read-out: L.M.A. MED
Method: (§6) Decreased Locomotor Activity (L.M.A.)
(§7) This reaction sign is measured subjectively by observing how an animal behaves when it is removed from an observation cage and placed on a table top. […] The degree of stimulation by the observer needed to produce active locomotion is rated on an arbitrary scale. This ranges from a score of -1 where only a slight touch of the animal's body is required to a -4 where the animal is unresponsive or minimally responsive to the application of a pain stimulus (pressure at the base of the tail). The minimal effective dose (MED) is the lowest oral dose producting an obvious decrease of locomotor activity (with a score of at least -1). Groups of 3 mice are given decreasing oral doses at 0.5 log intervals (300, 100, 30. . .etc.) until no behavioral effects are evident. Decrease of locomotor activity is indicative of general central nervous system depressant activity.

catalepsy [5] = assay: Catalepsy, mouse; type: in vivo; conditions: mouse, po; read-out: Catalepsy MED
Source text: as §5

[6] = test system: conditioned avoidance response; assay: Conditioned Avoidance Response (C.A.R.), rat; type: in vivo; conditions: rat, po; block of C.A.R. in 50% of animals; 1, 2, and 4 hours; read-out: C.A.R. ED50
Method: as §1, §2

eyelid closure (ptosis) [7] = assay: Ptosis, mouse; type: in vivo; conditions: mouse, po; passive ptosis; read-out: Ptosis MED
eyelid closure (ptosis) [8] = assay: Ptosis, rat; type: in vivo; conditions: rat, po; passive ptosis; read-out: Ptosis MED
Source text: Degree of eyelid closure is used as a measure of central nervous system depression. An animal is removed from its observation cage and allowed to remain outside the cage for 30 seconds. At the end of this time a rating of degree of eyelid closure is made on an arbitrary scale.

[9] = test system: phenyl-p-benzoquinone-induced writhing; assay: Phenylquinone Writhing (P.Q.W.); type: in vivo, mouse; conditions: 0.5 h; mouse, po; phenyl-p-benzoquinone 2.5 mg/kg i.p. 30 minutes after compound; read-out: P.Q.W. ED50
taming = assay: Rhesus Monkey Taming Effects; type: in vivo; conditions: Macaca mulatta; rhesus monkey, po; read-out: Taming MED
Method: Rhesus Monkey Taming Effects (Taming):
Results given in: mg/kg po/monkey
Compounds are administered orally to groups of 6 rhesus monkeys. The behavior of the animals is then evaluated by observational means. Taming effects are determined by the ability of the observer to approach and touch the monkey. Compounds with major tranquilizer activity in man can produce a state of passive tameness in the rhesus monkey wherein it can be touched without provoking any of the threatening or aggressive behavior seen in the normal animal. The MED is the minimal oral dose at which some taming effect can be observed.

locomotor activity [10] = assay: Decreased Locomotor Activity (L.M.A.), rat; type: in vivo; conditions: po; minimal effective dose; read-out: L.M.A. MED
Method: as §6, §7

TBZ-induced ptosis [11] = assay: Tetrabenazine Antagonism (T.B.Z.A.), mouse; type: in vivo; conditions: 1 h; mouse, po; TBZ 40 mg/kg s.c. one hour after compound; read-out: T.B.Z.A. ED50
Method: as §3, §4

[12] = test system: fear / feeding in approach-avoidance conflict; assay: Rat Conflict (Approach-Avoidance) Test; type: in vivo; conditions: rat, po; after 1 or 2 hours; read-out: Conflict MED
Method: Rat Conflict (Approach-Avoidance) Test (Conflict)
Results given in: mg/kg po/rat
Food deprived rats are trained to pass from one compartment to an adjacent one to obtain food. The training consists of 3 exposures to the test situation on day one of the experiment. The rats are given limited (1-2 hr) free access to food in their home cages on day one and are then food deprived for at least 18 hours. On day two of the experiment, the rats are given a control exposure to the test situation followed by a second exposure after one-half to 1 hour in which they are shocked after crossing and eating. Groups of 6-8 rats are then dosed orally with solvent or test compound and then re-exposed to the test situation after 1 or 2 hours.
Compounds showing minor tranquilizer (anxiolytic) activity in man such as diazepam and meprobamate produce an apparent decreased fear in the test animals so that they cross to obtain food despite having received a shock earlier. This effect is dose-related (and the MED is the minimum dose at which this effect is obtained); rats dosed with solvent only consistently show a high level of fear as evidenced by decreased mobility and absence of feeding when placed in the test situation after receiving a shock.

[13] = test system: conditioned avoidance response; assay: Dog Conditioned Avoidance Response (C.A.R.); type: in vivo; conditions: Canis lupus familiaris; dog, po; 5 or more incorrect responses in 50% of animals; 1, 2, and 4 hours; read-out: C.A.R. ED50
Method: Dog Conditioned Avoidance Response (C.A.R.):
Results given in: mg/kg po/dog
Dogs are trained to raise a forelimb when presented with a conditioned stimulus (light) in order to avoid an electric shock. Blocks of 10 trials are given to groups of 4 dogs during a pretreatment period and at 1, 2, and 4 hours after oral administration of the test compound. The ED50 values are calculated as the dose causing 50% of the animals to show 5 or more incorrect responses. Blocking of the C.A.R. at non-toxic doses appears to correlate with major tranquilizer activity in man.

catalepsy [14] = assay: Catalepsy, comparison with chlorpromazine; type: in vivo; conditions: read-out: Catalepsy (*ED50?)
locomotor activity [15] = assay: LMA, comparison with chlorpromazine; type: in vivo; conditions: read-out: LMA (*ED50?)
eyelid closure (ptosis) [16] = assay: Ptosis, comparison with chlorpromazine; type: in vivo; conditions: read-out: Ptosis (*ED50?)

SMILES	ED50 [1] [mg/kg]	ED50 (TBZ-induced ptosis [2]) [mg/kg]	minimal effective dose (catalepsy [3]) [mg/kg]	minimal effective dose (locomotor activity [4]) [mg/kg]	minimal effective dose (catalepsy [5]) [mg/kg]	ED50 [6] [mg/kg]	minimal effective dose (eyelid closure (ptosis) [7]) [mg/kg]	minimal effective dose (eyelid closure (ptosis) [8]) [mg/kg]	ED50 [9] [mg/kg]	minimal effective dose (taming) [mg/kg]	minimal effective dose (locomotor activity [10]) [mg/kg]	ED50 (TBZ-induced ptosis [11]) [mg/kg]	minimal effective dose [12] [mg/kg]	ED50 [13] [mg/kg]	ED50 (catalepsy [14]; species not given) [mg/kg]	ED50 (locomotor activity [15]; species not given) [mg/kg]	ED50 (eyelid closure (ptosis) [16]; species not given) [mg/kg]	ED50 (catalepsy [14]) [mg/kg]	ED50 (locomotor activity [15]) [mg/kg]	ED50 (eyelid closure (ptosis) [16]) [mg/kg]
c1ccc2c(c1)CCc1cccc3c1N2[C@@H]1CCN(CC2CC2)C[C@@H]31 (relative stereo) [Example 2, trans-3-(Cyclopropylmethyl)-1,2,3,4,4a,8,9,14a-octahydropyrido[4',3':2,3]indolo[1,7-ab][1]benzazepine]	0.7	> 100	3	3	3	0.7	10	3	2.3	1	1	> 100	> 40	3	–	–	–	–	–	–
CC(C)CN1CC[C@@H]2[C@@H](C1)c1cccc3c1N2c1ccccc1CC3 (relative stereo) [Example 5, trans-1,2,3,4,4a,8,9,14a-Octahydro-3-isobutylpyrido[4',3':2,3]indolo[1,7-ab][1]benzazepine]	–	–	6	2	2	–	8	5	1.75	–	4	–	–	–	6	4	5	–	–	–
CN(C)CCCN1c2ccccc2Sc2ccc(Cl)cc21 [Chlorpromazine]	–	–	–	–	–	–	–	–	–	–	–	–	–	–	–	–	–	6	5	6
